Source: ChEMBL document CHEMBL5291721, “A preclinical secondary pharmacology resource illuminates target-adverse drug reaction associations of marketed drugs” (Nat Commun, 2023)

Legend:
[1] = target: T1, Oxysterols receptor LXR-alpha (Homo sapiens, UniProt Q13133); type: functional
T1 sequence (Q13133 whole entry): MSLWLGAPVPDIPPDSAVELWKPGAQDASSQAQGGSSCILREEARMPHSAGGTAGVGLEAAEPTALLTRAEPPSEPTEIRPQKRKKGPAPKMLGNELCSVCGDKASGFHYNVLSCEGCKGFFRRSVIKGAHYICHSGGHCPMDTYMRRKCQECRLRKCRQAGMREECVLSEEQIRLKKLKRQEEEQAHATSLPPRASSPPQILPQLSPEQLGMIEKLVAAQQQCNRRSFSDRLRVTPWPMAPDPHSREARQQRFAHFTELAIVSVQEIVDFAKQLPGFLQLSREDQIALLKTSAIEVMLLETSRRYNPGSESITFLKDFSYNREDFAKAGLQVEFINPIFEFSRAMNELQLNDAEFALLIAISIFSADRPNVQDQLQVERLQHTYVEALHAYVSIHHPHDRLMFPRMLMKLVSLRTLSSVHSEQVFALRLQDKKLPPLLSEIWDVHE

[2] = target: T2, Bile acid receptor (Homo sapiens, UniProt Q96RI1); type: functional
T2 sequence (Q96RI1 whole entry): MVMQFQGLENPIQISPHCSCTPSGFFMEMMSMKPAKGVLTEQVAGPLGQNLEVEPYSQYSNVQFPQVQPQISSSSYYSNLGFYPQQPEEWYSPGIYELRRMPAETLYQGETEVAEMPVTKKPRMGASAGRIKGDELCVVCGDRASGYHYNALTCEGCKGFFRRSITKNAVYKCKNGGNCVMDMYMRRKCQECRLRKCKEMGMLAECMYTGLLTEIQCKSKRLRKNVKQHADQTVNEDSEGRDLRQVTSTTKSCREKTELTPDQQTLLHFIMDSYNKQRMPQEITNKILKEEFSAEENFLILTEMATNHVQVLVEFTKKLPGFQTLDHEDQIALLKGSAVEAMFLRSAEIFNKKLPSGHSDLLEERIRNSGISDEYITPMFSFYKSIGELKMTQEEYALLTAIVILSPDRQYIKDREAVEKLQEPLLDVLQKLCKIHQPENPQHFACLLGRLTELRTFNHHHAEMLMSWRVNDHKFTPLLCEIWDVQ

[3] = target: T2, Bile acid receptor; type: functional; remark: listed apart in the source
[4] = target: T2, Bile acid receptor; type: functional; remark: listed apart in the source
[5] = target: T3, Peroxisome proliferator-activated receptor alpha (Homo sapiens, UniProt Q07869); type: functional
T3 sequence (Q07869 whole entry): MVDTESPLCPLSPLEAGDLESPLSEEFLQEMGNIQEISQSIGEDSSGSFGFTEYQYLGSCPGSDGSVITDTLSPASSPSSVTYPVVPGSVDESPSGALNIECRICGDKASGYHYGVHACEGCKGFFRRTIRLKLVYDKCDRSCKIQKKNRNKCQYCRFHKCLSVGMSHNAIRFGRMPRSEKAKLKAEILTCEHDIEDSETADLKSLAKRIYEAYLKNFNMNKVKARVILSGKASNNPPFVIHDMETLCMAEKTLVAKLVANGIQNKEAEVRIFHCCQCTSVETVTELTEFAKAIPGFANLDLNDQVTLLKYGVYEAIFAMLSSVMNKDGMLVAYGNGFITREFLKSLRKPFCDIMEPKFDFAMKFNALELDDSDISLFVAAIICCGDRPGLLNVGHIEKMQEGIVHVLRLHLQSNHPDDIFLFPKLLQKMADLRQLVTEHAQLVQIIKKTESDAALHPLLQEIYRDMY

[6] = target: T3, Peroxisome proliferator-activated receptor alpha; type: functional; remark: listed apart in the source
[7] = target: T4, Retinoic acid receptor alpha (Homo sapiens, UniProt P10276); type: functional, cell-based
T4 sequence (P10276 whole entry): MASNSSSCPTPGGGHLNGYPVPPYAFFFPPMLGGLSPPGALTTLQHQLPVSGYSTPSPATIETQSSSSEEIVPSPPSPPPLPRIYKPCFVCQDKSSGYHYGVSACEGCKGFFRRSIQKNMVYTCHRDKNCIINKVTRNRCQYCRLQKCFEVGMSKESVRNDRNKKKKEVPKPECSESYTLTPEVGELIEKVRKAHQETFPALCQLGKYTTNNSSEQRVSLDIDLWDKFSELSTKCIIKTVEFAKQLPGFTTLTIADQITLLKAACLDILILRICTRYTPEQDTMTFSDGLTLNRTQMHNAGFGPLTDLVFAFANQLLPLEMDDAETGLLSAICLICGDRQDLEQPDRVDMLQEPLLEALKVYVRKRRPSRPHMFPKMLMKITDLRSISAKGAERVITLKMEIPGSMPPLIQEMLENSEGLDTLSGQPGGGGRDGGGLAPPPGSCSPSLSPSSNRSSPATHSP

[8] = target: T5, Retinoic acid receptor beta (Homo sapiens, UniProt P10826); type: functional, cell-based
T5 sequence (P10826 whole entry): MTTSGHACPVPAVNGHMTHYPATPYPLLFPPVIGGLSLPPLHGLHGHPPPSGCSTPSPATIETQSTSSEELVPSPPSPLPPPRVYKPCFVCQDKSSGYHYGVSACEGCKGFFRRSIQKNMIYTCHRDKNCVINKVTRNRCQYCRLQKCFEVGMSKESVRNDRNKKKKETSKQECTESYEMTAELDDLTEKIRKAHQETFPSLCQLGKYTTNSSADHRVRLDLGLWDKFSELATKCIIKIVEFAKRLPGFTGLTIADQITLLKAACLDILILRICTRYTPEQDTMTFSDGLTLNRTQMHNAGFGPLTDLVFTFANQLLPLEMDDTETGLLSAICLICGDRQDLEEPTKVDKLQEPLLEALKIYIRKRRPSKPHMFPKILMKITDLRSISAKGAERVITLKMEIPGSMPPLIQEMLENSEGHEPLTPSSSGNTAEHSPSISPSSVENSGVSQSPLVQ

[9] = target: T6, Retinoic acid receptor gamma (Homo sapiens, UniProt P13631); type: functional, cell-based
T6 sequence (P13631 whole entry): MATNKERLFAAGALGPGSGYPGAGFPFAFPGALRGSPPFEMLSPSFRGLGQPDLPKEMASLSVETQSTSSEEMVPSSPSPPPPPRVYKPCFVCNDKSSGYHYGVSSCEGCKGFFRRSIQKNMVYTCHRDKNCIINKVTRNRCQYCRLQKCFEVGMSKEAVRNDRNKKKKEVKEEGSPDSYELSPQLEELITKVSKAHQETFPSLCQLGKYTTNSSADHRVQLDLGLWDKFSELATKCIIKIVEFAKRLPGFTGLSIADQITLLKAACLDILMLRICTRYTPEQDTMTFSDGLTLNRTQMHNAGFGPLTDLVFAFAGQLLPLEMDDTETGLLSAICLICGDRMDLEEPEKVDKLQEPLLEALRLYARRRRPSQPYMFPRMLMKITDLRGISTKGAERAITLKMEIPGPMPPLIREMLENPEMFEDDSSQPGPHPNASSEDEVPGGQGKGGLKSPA
Further: assay procedure not described here.

## CC(=O)N1CCN(c2ccc(OCC3COC(Cn4ccnc4)(c4ccc(Cl)cc4Cl)O3)cc2)CC1 (centres undefined) [KETOCONAZOLE]
[1]
  AC50: > 30 µM
[2]
  AC50: > 30 µM
[3]
  AC50: > 30 µM
[4]
  AC50: 15 µM
[5]
  AC50: > 30 µM
[6]
  AC50: > 30 µM
[7]
  AC50: > 30 µM
[8]
  AC50: 3.3 µM
[9]
  AC50: > 30 µM
